According to ChEMBL document CHEMBL1122428, “Folate analogues. 20. Synthesis and antifolate activity of 1',2',3',4',5',6'-hexahydrohomofolic acid” (J Med Chem, 1983):

Experiments:
Enterococcus faecium [1] = test: Evaluated for the bacterial growth inhibition and the concentration required for 50% inhibition against Streptococcus faecium (MTX resistant); assay type: functional, organism-based
Enterococcus faecium [2] = test: Evaluated for the bacterial growth inhibition and the concentration required for 50% inhibition against Streptococcus faecium ATCC 8043 strain; assay type: functional, organism-based

In the case of `Nc1nc(O)c2c(n1)NCC(CCN[C@H]1CC[C@@H](C(=O)NC(CCC(=O)O)C(=O)O)CC1)=N2` (some centres not stated), the Concentration (Enterococcus faecium [1]) is reported as over 2000 ng/mL and the Concentration (Enterococcus faecium [2]) is reported as 30 ng/mL.

`Nc1nc(O)c2c(n1)NCC(CCNC1CCC(C(=O)O)CC1)=N2` (configuration not stated) was tested, and the Concentration (Enterococcus faecium [1]) was over 2000 ng/mL and the Concentration (Enterococcus faecium [2]) was 130 ng/mL.

`Nc1nc(O)c2nc(CCNC3CCC(C(=O)O)CC3)cnc2n1` (configuration not stated) was tested, and the Concentration (Enterococcus faecium [1]) was over 2000 ng/mL and the Concentration (Enterococcus faecium [2]) was over 2000 ng/mL.

With `Nc1nc(O)c2c(n1)NCC(CCNC1CCC(C(=O)O)CC1)N2` (configuration not stated) the Concentration (Enterococcus faecium [1]) was over 2000 ng/mL and the Concentration (Enterococcus faecium [2]) was 260 ng/mL.

`Nc1nc(O)c2c(n1)NCC(CCN[C@H]1CC[C@@H](C(=O)NC(CCC(=O)O)C(=O)O)CC1)N2` (some centres not stated) was tested, and the Concentration (Enterococcus faecium [1]) was over 2000 ng/mL and the Concentration (Enterococcus faecium [2]) was 38 ng/mL.

Compound `Nc1nc(O)c2nc(CCN[C@H]3CC[C@@H](C(=O)NC(CCC(=O)O)C(=O)O)CC3)cnc2n1` (some centres not stated) has a Concentration (Enterococcus faecium [1]) of over 2000 ng/mL and a Concentration (Enterococcus faecium [2]) of 2000 ng/mL.
